{"source": "patent US20230286919A1", "about": "“ISOQUINOLINE DERIVATIVES FOR USE IN THERAPY” (Vestlandets Innovasjonsselskap AS, priority 2020, published 2023)", "key": {"FGFR3": {"target": "FGFR3 (Homo sapiens, UniProt P22607)", "sequence (P22607 23-806)": "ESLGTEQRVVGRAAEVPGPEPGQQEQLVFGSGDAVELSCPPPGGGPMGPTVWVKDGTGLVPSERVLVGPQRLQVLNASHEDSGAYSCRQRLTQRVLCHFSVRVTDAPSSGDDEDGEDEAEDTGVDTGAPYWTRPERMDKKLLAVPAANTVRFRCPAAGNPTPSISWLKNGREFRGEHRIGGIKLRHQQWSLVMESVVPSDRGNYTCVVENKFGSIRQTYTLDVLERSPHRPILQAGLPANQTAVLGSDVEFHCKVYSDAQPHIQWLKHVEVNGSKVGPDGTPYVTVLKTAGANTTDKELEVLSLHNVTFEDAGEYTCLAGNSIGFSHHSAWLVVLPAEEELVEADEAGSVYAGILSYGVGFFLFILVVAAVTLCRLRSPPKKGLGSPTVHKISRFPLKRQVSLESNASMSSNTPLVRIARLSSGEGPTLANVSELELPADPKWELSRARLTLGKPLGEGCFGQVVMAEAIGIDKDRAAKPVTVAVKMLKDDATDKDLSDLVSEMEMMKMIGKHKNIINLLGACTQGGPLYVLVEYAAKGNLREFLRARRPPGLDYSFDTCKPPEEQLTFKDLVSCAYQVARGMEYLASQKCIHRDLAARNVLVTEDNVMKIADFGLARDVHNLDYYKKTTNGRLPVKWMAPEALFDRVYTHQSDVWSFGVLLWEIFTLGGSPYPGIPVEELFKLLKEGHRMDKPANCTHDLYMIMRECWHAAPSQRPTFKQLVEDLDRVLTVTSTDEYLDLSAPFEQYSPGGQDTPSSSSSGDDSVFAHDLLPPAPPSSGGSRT", "assay": "SelectScreen kinase profiling, FGFR3", "assay_type": "biochemical", "settings": "read-out: Enzyme inhibitory activity IC50"}, "MAPK8 (JNK1)": {"target": "MAPK8 (JNK1) (Homo sapiens, UniProt P45983)", "sequence (P45983 whole entry)": "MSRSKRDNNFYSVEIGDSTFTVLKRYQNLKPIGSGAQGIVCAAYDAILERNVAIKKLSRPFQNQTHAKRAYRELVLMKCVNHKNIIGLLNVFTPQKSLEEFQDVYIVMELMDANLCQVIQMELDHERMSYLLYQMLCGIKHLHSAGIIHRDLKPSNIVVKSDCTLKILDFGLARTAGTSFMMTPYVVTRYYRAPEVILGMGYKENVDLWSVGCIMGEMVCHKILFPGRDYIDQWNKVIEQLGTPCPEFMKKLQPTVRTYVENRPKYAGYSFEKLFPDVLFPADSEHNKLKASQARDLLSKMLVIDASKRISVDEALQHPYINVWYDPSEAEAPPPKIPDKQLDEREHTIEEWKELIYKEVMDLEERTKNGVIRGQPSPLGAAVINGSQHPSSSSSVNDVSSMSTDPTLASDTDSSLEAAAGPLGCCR", "assay": "SelectScreen kinase profiling, MAPK8", "assay_type": "biochemical", "settings": "read-out: Enzyme inhibitory activity IC50"}, "KDR (VEGFR2)": {"target": "KDR (VEGFR2) (Homo sapiens, UniProt P35968)", "assay": "SelectScreen kinase profiling, KDR", "assay_type": "biochemical", "settings": "read-out: Enzyme inhibitory activity IC50"}, "EGFR (ErbB1)": {"target": "EGFR (ErbB1) (Homo sapiens, UniProt P00533)", "assay": "SelectScreen kinase profiling, EGFR", "assay_type": "biochemical", "settings": "read-out: Enzyme inhibitory activity IC50"}, "ERBB4 (HER4)": {"target": "ERBB4 (HER4) (Homo sapiens, UniProt Q15303)", "assay": "SelectScreen kinase profiling, ERBB4", "assay_type": "biochemical", "settings": "read-out: Enzyme inhibitory activity IC50"}, "TGFBR1 (ALK5)": {"target": "TGFBR1 (ALK5) (Homo sapiens, UniProt P36897)", "sequence (P36897 34-503)": "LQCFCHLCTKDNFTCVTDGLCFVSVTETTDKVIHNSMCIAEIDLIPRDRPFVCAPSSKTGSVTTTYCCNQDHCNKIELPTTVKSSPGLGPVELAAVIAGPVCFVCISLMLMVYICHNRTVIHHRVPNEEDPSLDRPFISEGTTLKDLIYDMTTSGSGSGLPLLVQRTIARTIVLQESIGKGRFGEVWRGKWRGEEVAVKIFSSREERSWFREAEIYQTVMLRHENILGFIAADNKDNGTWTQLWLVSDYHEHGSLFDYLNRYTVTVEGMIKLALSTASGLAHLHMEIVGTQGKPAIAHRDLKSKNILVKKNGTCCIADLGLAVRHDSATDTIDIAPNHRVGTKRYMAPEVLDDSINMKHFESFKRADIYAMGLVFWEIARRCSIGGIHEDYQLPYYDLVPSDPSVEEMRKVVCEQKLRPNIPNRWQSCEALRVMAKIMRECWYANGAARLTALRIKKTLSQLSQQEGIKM", "assay": "SelectScreen kinase profiling, TGFBR1 (ALK5)", "assay_type": "binding", "settings": "cell free, read-out: Enzyme inhibitory activity IC50", "protocol": "The in vitro kinase inhibitory assays in the presence of compounds 323-1 and 323-2 were carried out according to the Z′-LYTE™ Screening and LanthaScreen Eu Kinase Binding Assays Experimental Procedures in Invitrogen (ThermoFisher Scientific, Waltham, Mass., USA). For the Z′-LYTE™ Screening profiling for FRAP1 (mTOR), JAK3, and LTK (TYK1), a mixture containing the test compounds in 100% DMSO, 2.4 μL Kinase buffer (50 mM HEPES pH 7.5, 0.01% BRIJ-35, 10 mM MgCl2, 1 mM EGTA), 5 μL 2× Peptide/Kinase Mixture, 2.5 μL 4×ATP Solution were added into black 384-well low volume NBS and bar-coded corning plate (Corning Cat. #4514) and shake the plate for 30 seconds. After incubation at RT for 60 min, 5 μL Development Reagent Solution was added into plate and shake the plate for 30 seconds, followed by Development Reaction incubation at RT for 60 min. Read on fluorescence plate reader and analyze the data. […]\nInhibition by compounds 323-1 and 323-2 of MAP2K4 (MEK4) and TGFBR1 (ALK5) was determined by […]. Inhibition by compounds 323-1 and 323-2 of FRAP1 (mTOR), JAK3, and LTK (TYK1) was determined by […] using the Adapta Universal Kinase Assay (Life Technologies). […]"}, "MAPK10 (JNK3)": {"target": "MAPK10 (JNK3) (Homo sapiens, UniProt P53779)", "assay": "SelectScreen kinase profiling, MAPK10", "assay_type": "biochemical", "settings": "read-out: Enzyme inhibitory activity IC50"}, "SRC": {"target": "SRC (Homo sapiens, UniProt P12931)", "assay": "SelectScreen kinase profiling, SRC", "assay_type": "biochemical", "settings": "read-out: Enzyme inhibitory activity IC50"}, "PRKCD (PKC delta)": {"target": "PRKCD (PKC delta) (Homo sapiens, UniProt Q05655)", "sequence (Q05655 whole entry)": "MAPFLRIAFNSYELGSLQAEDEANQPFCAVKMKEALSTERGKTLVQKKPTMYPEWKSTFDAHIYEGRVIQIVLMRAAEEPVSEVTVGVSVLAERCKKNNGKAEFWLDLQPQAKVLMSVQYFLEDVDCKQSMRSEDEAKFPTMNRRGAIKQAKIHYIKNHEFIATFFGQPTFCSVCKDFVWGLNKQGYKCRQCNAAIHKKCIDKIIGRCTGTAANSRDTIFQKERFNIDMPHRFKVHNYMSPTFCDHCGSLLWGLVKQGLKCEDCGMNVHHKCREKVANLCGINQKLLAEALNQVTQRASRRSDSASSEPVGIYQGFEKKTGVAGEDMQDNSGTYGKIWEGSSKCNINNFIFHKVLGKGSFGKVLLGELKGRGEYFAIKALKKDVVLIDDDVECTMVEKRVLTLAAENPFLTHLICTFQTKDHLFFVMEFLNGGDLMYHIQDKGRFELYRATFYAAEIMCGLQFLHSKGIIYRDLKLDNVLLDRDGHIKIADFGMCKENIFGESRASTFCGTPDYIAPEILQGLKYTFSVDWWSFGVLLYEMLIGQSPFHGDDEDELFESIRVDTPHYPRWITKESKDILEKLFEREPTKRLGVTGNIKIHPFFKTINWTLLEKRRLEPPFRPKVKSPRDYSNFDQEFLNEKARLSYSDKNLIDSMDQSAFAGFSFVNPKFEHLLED", "assay": "SelectScreen kinase profiling, PRKCD", "assay_type": "biochemical", "settings": "read-out: Enzyme inhibitory activity IC50"}, "PDGFRB (PDGFR beta)": {"target": "PDGFRB (PDGFR beta) (Homo sapiens, UniProt P09619)", "assay": "SelectScreen kinase profiling, PDGFRB", "assay_type": "biochemical", "settings": "read-out: Enzyme inhibitory activity IC50"}, "MAPK9 (JNK2)": {"target": "MAPK9 (JNK2) (Homo sapiens, UniProt P45984)", "assay": "SelectScreen kinase profiling, MAPK9", "assay_type": "biochemical", "settings": "read-out: Enzyme inhibitory activity IC50"}, "LYN A": {"target": "LYN A (Homo sapiens, UniProt P07948)", "assay": "SelectScreen kinase profiling, LYN A", "assay_type": "biochemical", "settings": "read-out: Enzyme inhibitory activity IC50"}, "FGFR4": {"target": "FGFR4 (Homo sapiens, UniProt P22455)", "sequence (P22455 22-802)": "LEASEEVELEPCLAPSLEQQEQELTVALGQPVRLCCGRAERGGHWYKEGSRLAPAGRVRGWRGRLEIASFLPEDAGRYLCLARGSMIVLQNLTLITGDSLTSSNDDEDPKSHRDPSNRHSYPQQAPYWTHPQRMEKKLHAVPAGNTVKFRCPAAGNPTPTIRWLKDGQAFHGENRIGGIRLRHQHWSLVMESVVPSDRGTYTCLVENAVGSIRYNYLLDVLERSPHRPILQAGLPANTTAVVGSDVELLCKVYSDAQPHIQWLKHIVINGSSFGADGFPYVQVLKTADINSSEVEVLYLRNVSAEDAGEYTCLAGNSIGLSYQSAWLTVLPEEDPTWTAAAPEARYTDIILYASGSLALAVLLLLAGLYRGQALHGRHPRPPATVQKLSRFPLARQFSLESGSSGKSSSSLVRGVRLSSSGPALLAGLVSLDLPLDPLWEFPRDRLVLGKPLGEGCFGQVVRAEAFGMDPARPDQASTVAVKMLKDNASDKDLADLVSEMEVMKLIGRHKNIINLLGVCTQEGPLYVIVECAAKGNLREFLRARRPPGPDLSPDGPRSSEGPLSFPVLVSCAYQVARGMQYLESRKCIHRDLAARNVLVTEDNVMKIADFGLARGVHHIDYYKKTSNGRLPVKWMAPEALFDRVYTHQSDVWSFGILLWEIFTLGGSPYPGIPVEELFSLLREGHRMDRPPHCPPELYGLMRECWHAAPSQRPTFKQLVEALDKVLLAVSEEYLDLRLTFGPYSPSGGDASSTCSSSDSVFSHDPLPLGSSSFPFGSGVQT", "assay": "SelectScreen kinase profiling, FGFR4", "assay_type": "biochemical", "settings": "read-out: Enzyme inhibitory activity IC50"}, "AKT2 (PKB beta)": {"target": "AKT2 (PKB beta) (Homo sapiens, UniProt P31751)", "sequence (P31751 whole entry)": "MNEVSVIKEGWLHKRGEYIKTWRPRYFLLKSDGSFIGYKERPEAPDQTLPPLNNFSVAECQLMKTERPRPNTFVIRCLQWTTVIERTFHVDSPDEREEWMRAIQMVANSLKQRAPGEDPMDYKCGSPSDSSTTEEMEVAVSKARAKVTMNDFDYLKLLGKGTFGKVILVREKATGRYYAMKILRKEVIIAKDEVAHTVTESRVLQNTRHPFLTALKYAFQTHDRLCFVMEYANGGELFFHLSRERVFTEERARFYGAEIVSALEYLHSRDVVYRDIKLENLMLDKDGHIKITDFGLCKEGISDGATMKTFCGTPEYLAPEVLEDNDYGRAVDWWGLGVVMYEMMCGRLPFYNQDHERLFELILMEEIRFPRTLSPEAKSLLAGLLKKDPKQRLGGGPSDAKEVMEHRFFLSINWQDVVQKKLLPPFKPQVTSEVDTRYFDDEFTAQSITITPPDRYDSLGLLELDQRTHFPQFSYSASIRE", "assay": "SelectScreen kinase profiling, AKT2", "assay_type": "biochemical", "settings": "read-out: Enzyme inhibitory activity IC50"}, "ERBB2 (HER2)": {"target": "ERBB2 (HER2) (Homo sapiens, UniProt P04626)", "assay": "SelectScreen kinase profiling, ERBB2", "assay_type": "biochemical", "settings": "read-out: Enzyme inhibitory activity IC50"}, "TYK2": {"target": "TYK2 (Homo sapiens, UniProt P29597)", "sequence (P29597 whole entry)": "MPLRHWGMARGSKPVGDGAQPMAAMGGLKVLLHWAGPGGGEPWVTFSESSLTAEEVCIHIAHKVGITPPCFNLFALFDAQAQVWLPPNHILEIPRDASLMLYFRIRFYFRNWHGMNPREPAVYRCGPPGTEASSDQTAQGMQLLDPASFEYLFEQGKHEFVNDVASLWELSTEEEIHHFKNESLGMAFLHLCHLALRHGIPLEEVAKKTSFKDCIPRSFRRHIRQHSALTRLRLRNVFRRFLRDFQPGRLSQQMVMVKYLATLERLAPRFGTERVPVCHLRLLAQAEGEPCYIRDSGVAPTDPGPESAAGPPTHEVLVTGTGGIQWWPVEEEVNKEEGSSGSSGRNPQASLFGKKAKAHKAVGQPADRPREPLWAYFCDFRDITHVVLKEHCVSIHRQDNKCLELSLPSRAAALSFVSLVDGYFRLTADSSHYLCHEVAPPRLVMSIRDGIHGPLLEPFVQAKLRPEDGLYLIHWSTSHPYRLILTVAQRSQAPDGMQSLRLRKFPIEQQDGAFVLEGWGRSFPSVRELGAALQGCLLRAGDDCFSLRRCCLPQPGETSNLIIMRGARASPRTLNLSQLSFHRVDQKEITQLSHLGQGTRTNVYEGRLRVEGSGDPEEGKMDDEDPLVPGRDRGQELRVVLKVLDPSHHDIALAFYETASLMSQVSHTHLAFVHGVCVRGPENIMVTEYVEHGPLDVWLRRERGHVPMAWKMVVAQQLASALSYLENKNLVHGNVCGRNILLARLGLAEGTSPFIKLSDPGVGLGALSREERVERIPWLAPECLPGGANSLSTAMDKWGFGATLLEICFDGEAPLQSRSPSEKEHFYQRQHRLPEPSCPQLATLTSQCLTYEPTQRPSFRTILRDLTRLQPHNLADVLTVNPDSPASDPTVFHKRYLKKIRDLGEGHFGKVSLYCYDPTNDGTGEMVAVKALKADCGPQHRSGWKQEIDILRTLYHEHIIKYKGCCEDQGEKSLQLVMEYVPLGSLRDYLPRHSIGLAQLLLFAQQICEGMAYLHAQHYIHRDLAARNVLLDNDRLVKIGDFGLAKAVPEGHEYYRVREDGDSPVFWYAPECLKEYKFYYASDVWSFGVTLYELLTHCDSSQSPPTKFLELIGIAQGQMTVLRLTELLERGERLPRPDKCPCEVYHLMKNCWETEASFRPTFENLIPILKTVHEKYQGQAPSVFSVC", "assay": "SelectScreen kinase profiling, TYK2", "assay_type": "biochemical", "settings": "read-out: Enzyme inhibitory activity IC50"}, "FGFR2": {"target": "FGFR2 (Homo sapiens, UniProt P21802)", "assay": "SelectScreen kinase profiling, FGFR2", "assay_type": "biochemical", "settings": "read-out: Enzyme inhibitory activity IC50"}, "[1]": {"test_system": "phosphorylated STAT3 (Tyr705)", "assay": "Western blot, IL-6-induced phosphorylation of STAT3 (Tyr705) in LNCaP cells", "assay_type": "cell-based, human", "settings": "20 μM, 24 hrs, 10 ng/ml IL-6 last 15 min", "protocol": "To obtain the results shown in FIG. 9, LNCaP cells were treated with DMSO, 20 μM of compound 323-1 or 323-2 or 5 μM cryptotanshinone for 24 hrs before treatment with or without 10 ng/ml IL-6 for the last 15 min."}, "[2]": {"test_system": "DU145, PC3, EPT3M1-STAT3, and 22Rv1 cells", "assay": "In vitro clonogenic assay", "assay_type": "cell-based, human", "settings": "DU145, PC3, EPT3M1-STAT3, 22Rv1; 2 weeks", "protocol": "On the second day after seeding single cells, 323-1 and 323-2 were added at various concentrations, and cells were allowed to grow for 2 weeks to form colonies, then stained with 0.4% crystal violet (w/v)."}, "STAT3 activity": {"test_system": "STAT3 activity", "assay": "STAT3 luciferase reporter assay in HEK293T cells with IL-6", "assay_type": "cell-based, human", "settings": "20 ng/ml IL-6, 24 hrs, compared with cryptotanshinone", "protocol": "Luciferase activity was measured by the Dual Luciferase Assay Kit (Promega) using a Luminescence Microplate Reader (Biotek). Values were normalized to Renilla luciferase activity of DMSO vehicle.\nAll data are represented as the average±s.e.m (n=3). Significance was verified by using unpaired two-tailed Student's t-test. *p s 0.05."}}}
{"smiles": "C[C@@H]1CCC(c2cc3c4c(cncc4c2)[C@H](C)C3)=C1C=O", "note": "[323-1, (15R,2R)-Delavatine A]", "values": [{"measurement": "IC50", "setting": "FGFR3", "value": "> 20", "unit": "µM"}, {"measurement": "IC50", "setting": "MAPK8 (JNK1)", "value": "> 20", "unit": "µM"}, {"measurement": "IC50", "setting": "KDR (VEGFR2)", "value": "> 20", "unit": "µM"}, {"measurement": "IC50", "setting": "EGFR (ErbB1)", "value": "> 20", "unit": "µM"}, {"measurement": "IC50", "setting": "ERBB4 (HER4)", "value": "> 20", "unit": "µM"}, {"measurement": "IC50", "setting": "TGFBR1 (ALK5)", "value": 7.95, "unit": "µM"}, {"measurement": "IC50", "setting": "MAPK10 (JNK3)", "value": "> 20", "unit": "µM"}, {"measurement": "IC50", "setting": "SRC", "value": "> 20", "unit": "µM"}, {"measurement": "IC50", "setting": "PRKCD (PKC delta)", "value": "> 20", "unit": "µM"}, {"measurement": "IC50", "setting": "PDGFRB (PDGFR beta)", "value": "> 20", "unit": "µM"}, {"measurement": "IC50", "setting": "MAPK9 (JNK2)", "value": "> 20", "unit": "µM"}, {"measurement": "IC50", "setting": "LYN A", "value": "> 20", "unit": "µM"}, {"measurement": "IC50", "setting": "FGFR4", "value": "> 20", "unit": "µM"}, {"measurement": "IC50", "setting": "AKT2 (PKB beta)", "value": "> 20", "unit": "µM"}, {"measurement": "IC50", "setting": "ERBB2 (HER2)", "value": "> 20", "unit": "µM"}, {"measurement": "IC50", "setting": "TYK2", "value": "> 20", "unit": "µM"}, {"measurement": "IC50", "setting": "FGFR2", "value": "> 20", "unit": "µM"}]}
{"smiles": "C[C@@H]1CCC(c2cc3c4c(cncc4c2)[C@@H](C)C3)=C1C=O", "note": "[323-2, (15S,2R)-Delavatine A]", "values": [{"measurement": "IC50", "setting": "FGFR3", "value": "> 20", "unit": "µM"}, {"measurement": "IL-6-induced phosphorylation of STAT3 on Tyr705", "setting": "[1]", "value": "inhibited"}, {"measurement": "IC50", "setting": "MAPK8 (JNK1)", "value": "> 20", "unit": "µM"}, {"measurement": "IC50", "setting": "KDR (VEGFR2)", "value": "> 20", "unit": "µM"}, {"measurement": "IC50", "setting": "EGFR (ErbB1)", "value": "> 20", "unit": "µM"}, {"measurement": "IC50", "setting": "ERBB4 (HER4)", "value": "> 20", "unit": "µM"}, {"measurement": "IC50", "setting": "TGFBR1 (ALK5)", "value": 9.25, "unit": "µM"}, {"measurement": "IC50", "setting": "MAPK10 (JNK3)", "value": "> 20", "unit": "µM"}, {"measurement": "Colony formation", "setting": "[2]", "value": "Concentration-dependent inhibition of colony formation"}, {"measurement": "IC50", "setting": "SRC", "value": "> 20", "unit": "µM"}, {"measurement": "IC50", "setting": "PRKCD (PKC delta)", "value": "> 20", "unit": "µM"}, {"measurement": "Inhibitory effect on STAT3 activation (luciferase reporter)", "setting": "STAT3 activity", "value": "stronger inhibitory effect on STAT3 activation than cryptotanshinone"}, {"measurement": "IC50", "setting": "PDGFRB (PDGFR beta)", "value": "> 20", "unit": "µM"}, {"measurement": "IC50", "setting": "MAPK9 (JNK2)", "value": "> 20", "unit": "µM"}, {"measurement": "IC50", "setting": "LYN A", "value": "> 20", "unit": "µM"}, {"measurement": "IC50", "setting": "FGFR4", "value": "> 20", "unit": "µM"}, {"measurement": "IC50", "setting": "AKT2 (PKB beta)", "value": "> 20", "unit": "µM"}, {"measurement": "IC50", "setting": "ERBB2 (HER2)", "value": "> 20", "unit": "µM"}, {"measurement": "IC50", "setting": "TYK2", "value": "> 20", "unit": "µM"}, {"measurement": "IC50", "setting": "FGFR2", "value": "> 20", "unit": "µM"}]}
